From patent US20100204265A1 (priority 2009, published 2010)

Test system: ET (Huh-lucubineo-ET) cell line harboring I389luc-ubi-neo/NS3-3′/ET HCV replicon
Test: Replicon assay (HCV replicon, luciferase readout)
Format: cell-based
Conditions: Hepatitis C virus
Description: A cell line, ET (Huh-lucubineo-ET) is used for screening of compounds for inhibiting HCV RNA dependent RNA polymerase. The ET cell line is stably transfected with RNA transcripts harboring a I389luc-ubi-neo/NS3-3′/ET; replicon with firefly luciferase-ubiquitin-neomycin phosphotransferase fusion protein and EMCV-IRES driven NS3-5B polyprotein containing the cell culture adaptive mutations (E1202G; T1280I; K1846T) (Krieger at al, 2001 and unpublished). The ET cells are grown in DMEM (Dulbeco's Modified Eagle's Medium), supplemented with 10% fetal calf serum, 2 mM Glutamine, Penicillin (100 IU/mL)/Streptomycin (100 μg/mL), 1× nonessential amino acids, and 250 μg/mL G418 (“Geneticin”). They are all available through Life Technologies (Bethesda, Md.). The cells are plated at 0.5−1.0×10^4 cells/well in the 96 well plates and incubated for 24 hrs before adding test compound. The compounds are added to the cells to achieve a final concentration of 0.1 nM to […] and a final DMSO (dimethylsulfoxide) concentration of 0.5%. Luciferase activity is measured 48-72 hours later by adding a lysis buffer and the substrate (Catalog number Glo-lysis buffer E2661 and Bright-Glo luciferase system E2620 Promega, Madison, Wis.). Cells should not be too confluent during the assay. Percent inhibition of replication data is plotted relative to no compound control. Under the same condition, cytotoxicity of the compounds are determined using cell proliferation reagent, WST-1 (Roche, Germany). The compounds showing antiviral activities, but no significant cytotoxicities are chosen to determine EC50 and TC50. For these determinations, a 10 point, 2-fold serial dilution for each compound was used, which spans a concentration range of 1000 fold. EC50 and similarly TC50 values were calculated by fitting % inhibition at each concentration to the following equation:
% inhibition=100%/[(EC50/[I])^b+1]
where b is Hill's coefficient.

Structure (SMILES) | EC50
O=C(c1nc2c(C(F)(F)F)cc(-c3ccccc3)cn2c1Cl)N1CC=C(c2ncccc2F)CC1 [Compound 124, (3-Chloro-6-phenyl-8-trifluoromethyl-imidazo[1,2-a]pyridin-2-yl)-(3-fluoro-3′,6′-dihydro-2′H-[2,4′]bipyridinyl-1′-yl)-methanone] | 2480 nM
O=C(c1nc2c(C(F)(F)F)cc(Br)cn2c1Cl)N1CC=C(c2ncccc2F)CC1 [Compound 125, (6-Bromo-3-chloro-8-trifluoromethyl-imidazo[1,2-a]pyridin-2-yl)-(3-fluoro-3′,6′-dihydro-2′H-[2,4′]bipyridinyl-1′-yl)-methanone] | 29.3 nM
C=Cc1cc(C(F)(F)F)c2nc(C(=O)N3CC=C(c4ncccc4F)CC3)c(Cl)n2c1 [Compound 126, (3-Chloro-8-trifluoromethyl-6-vinyl-imidazo[1,2-a]pyridin-2-yl)-(3-fluoro-3′,6′-dihydro-2′H-[2,4′]bipyridinyl-1′-yl)-methanone] | 27.5 nM
O=C(c1nc2c(C(F)(F)F)cc(/C=C/C3CC3)cn2c1Cl)N1CC=C(c2ncccc2F)CC1 [Compound 127, [3-Chloro-6-(2-cyclopropyl-vinyl)-8-trifluoromethyl-imidazo[1,2-a]pyridin-2-yl]-(3-fluoro-3′,6′-dihydro-2′H-[2,4′]bipyridinyl-1′-yl)-methanone] | 428 nM
O=C(Cc1cccc(F)c1)NCc1cn2cc(-c3ccoc3)cc(C(F)(F)F)c2n1 [Compound 128, 2-(3-Fluoro-phenyl)-N-(6-furan-3-yl-8-trifluoromethyl-imidazo[1,2-a]pyridin-2-ylmethyl)-acetamide] | 4830 nM
O=C(Cc1ccccc1F)NCc1cn2cc(-c3ccoc3)cc(C(F)(F)F)c2n1 [Compound 129, 2-(2-Fluoro-phenyl)-N-(6-furan-3-yl-8-trifluoromethyl-imidazo[1,2-a]pyridin-2-ylmethyl)-acetamide] | 20300 nM
O=C(NCc1cn2cc(-c3ccoc3)cc(C(F)(F)F)c2n1)c1ccccc1 [Compound 130, N-(6-Furan-3-yl-8-trifluoromethyl-imidazo[1,2-a]pyridin-2-ylmethyl)-benzamide] | 49800 nM
O=C(c1nc2c(C(F)(F)F)cc(-c3cn[nH]c3)cn2c1Cl)N1CC=C(c2ccoc2)C1 [Compound 131, [3-Chloro-6-(1H-pyrazol-4-yl)-8-trifluoromethyl-imidazo[1,2-a]pyridin-2-yl]-(3-furan-3-yl-2,5-dihydro-pyrrol-1-yl)-methanone] | 268 nM
O=C(c1nc2c(C(F)(F)F)cc(-c3cn[nH]c3)cn2c1Cl)N1CC=C(c2ccsc2)C1 [Compound 132, [3-Chloro-6-(1H-pyrazol-4-yl)-8-trifluoromethyl-imidazo[1,2-a]pyridin-2-yl]-(3-thiophen-3-yl-2,5-dihydro-pyrrol-1-yl)-methanone] | 107 nM
O=C(c1nc2c(C(F)(F)F)cc(-c3cn[nH]c3)cn2c1Cl)N1CC=C(c2cnoc2)C1 [Compound 133, [3-Chloro-6-(1H-pyrazol-4-yl)-8-trifluoromethyl-imidazo[1,2-a]pyridin-2-yl]-(3-isoxazol-4-yl-2,5-dihydro-pyrrol-1-yl)-methanone] | 3470 nM
O=C(c1nc2c(C(F)(F)F)cc(-c3cn[nH]c3)cn2c1Cl)N1CC=C(c2cccnc2)C1 [Compound 134, [3-Chloro-6-(1H-pyrazol-4-yl)-8-trifluoromethyl-imidazo[1,2-a]pyridin-2-yl]-(3-pyridin-3-yl-2,5-dihydro-pyrrol-1-yl)-methanone] | 188 nM
O=C(c1nc2c(C(F)(F)F)cc(-c3cn[nH]c3)cn2c1Cl)N1CC=C(c2cn[nH]c2)C1 [Compound 135, [3-Chloro-6-(1H-pyrazol-4-yl)-8-trifluoromethyl-imidazo[1,2-a]pyridin-2-yl]-[3-(1H-pyrazol-4-yl)-2,5-dihydro-pyrrol-1-yl]-methanone] | 596 nM
O=C(c1nc2c(C(F)(F)F)cc(-c3cn[nH]c3)cn2c1Cl)N1CC=C(C2=CCNCC2)C1 [Compound 136, [3-Chloro-6-(1H-pyrazol-4-yl)-8-trifluoromethyl-imidazo[1,2-a]pyridin-2-yl]-[3-(1,2,3,6-tetrahydro-pyridin-4-yl)-2,5-dihydro-pyrrol-1-yl]-methanone] | 5370 nM
O=C(c1nc2c(C(F)(F)F)cc(-c3cn[nH]c3)cn2c1Cl)N1CC=C(c2cc[nH]n2)C1 [Compound 137, [3-Chloro-6-(1H-pyrazol-4-yl)-8-trifluoromethyl-imidazo[1,2-a]pyridin-2-yl]-[3-(1H-pyrazol-3-yl)-2,5-dihydro-pyrrol-1-yl]-methanone] | > 50000 nM
O=C(NCCc1cn2cc(-c3ccoc3)cc(C(F)(F)F)c2n1)c1ccccc1 [Compound 138, N-[2-(6-Furan-3-yl-8-trifluoromethyl-imidazo[1,2-a]pyridin-2-yl)-ethyl]-benzamide] | 35300 nM
CS(=O)(=O)NC1CN(C(=O)c2nc3c(C(F)(F)F)cc(-c4ccco4)cn3c2Cl)C1 [Compound 139, N-[1-(3-Chloro-6-furan-2-yl-8-trifluoromethyl-imidazo[1,2-a]pyridine-2-carbonyl)-azetidin-3-yl]-methanesulfonamide] | 112 nM
CS(=O)(=O)NC1CN(C(=O)c2nc3c(C(F)(F)F)cc(Br)cn3c2Cl)C1 [Compound 140, N-[1-(6-Bromo-3-chloro-8-trifluoromethyl-imidazo[1,2-a]pyridine-2-carbonyl)-azetidin-3-yl]-methanesulfonamide] | 13800 nM
CS(=O)(=O)NC1CN(C(=O)c2nc3c(C(F)(F)F)cc(-c4cccc(F)c4)cn3c2Cl)C1 [Compound 141, N-{1-[3-Chloro-6-(3-fluoro-phenyl)-8-trifluoromethyl-imidazo[1,2-a]pyridine-2-carbonyl]-azetidin-3-yl}-methanesulfonamide] | 476 nM
CS(=O)(=O)NC1CN(C(=O)c2nc3c(C(F)(F)F)cc(-c4cccnc4)cn3c2Cl)C1 [Compound 142, N-[1-(3-Chloro-6-pyridin-3-yl-8-trifluoromethyl-imidazo[1,2-a]pyridine-2-carbonyl)-azetidin-3-yl]-methanesulfonamide] | 1940 nM
CN(C1CN(C(=O)c2nc3c(C(F)(F)F)cc(-c4ccoc4)cn3c2Cl)C1)S(C)(=O)=O [Compound 143, N-[1-(3-Chloro-6-furan-3-yl-8-trifluoromethyl-imidazo[1,2-a]pyridine-2-carbonyl)-azetidin-3-yl]-N-methyl-methanesulfonamide] | 901 nM
CS(=O)(=O)N(CCO)C1CN(C(=O)c2nc3c(C(F)(F)F)cc(-c4ccoc4)cn3c2Cl)C1 [Compound 144, N-[1-(3-Chloro-6-furan-3-yl-8-trifluoromethyl-imidazo[1,2-a]pyridine-2-carbonyl)-azetidin-3-yl]-N-(2-hydroxy-ethyl)-methanesulfonamide] | 7550 nM
CS(=O)(=O)NC1CN(C(=O)c2cn3cc(-c4coc(Br)c4)cc(C(F)(F)F)c3n2)C1 [Compound 145, N-{1-[6-(5-Bromo-furan-3-yl)-8-trifluoromethyl-imidazo[1,2-a]pyridine-2-carbonyl]-azetidin-3-yl}-methanesulfonamide] | 3500 nM
CCS(=O)(=O)NC1CN(C(=O)c2cn3cc(-c4coc(Br)c4)cc(C(F)(F)F)c3n2)C1 [Compound 146, Ethanesulfonic acid {1-[6-(5-bromo-furan-3-yl)-8-trifluoromethyl-imidazo[1,2-a]pyridine-2-carbonyl]-azetidin-3-yl}-amide] | 2240 nM
O=C(c1cn2cc(-c3coc(Br)c3)cc(C(F)(F)F)c2n1)N1CC(NS(=O)(=O)C2CC2)C1 [Compound 147, Cyclopropanesulfonic acid {1-[6-(5-bromo-furan-3-yl)-8-trifluoromethyl-imidazo[1,2-a]pyridine-2-carbonyl]-azetidin-3-yl}-amide] | 3990 nM
O=C(c1nc2c(C(F)(F)F)cc(-c3ccoc3)cn2c1C1CC1)N1CC=C(c2ncccc2F)CC1 [Compound 149, (3-Cyclopropyl-6-furan-3-yl-8-trifluoromethyl-imidazo[1,2-a]pyridin-2-yl)-(3-fluoro-3′,6′-dihydro-2′H-[2,4′]bipyridinyl-1′-yl)-methanone] | 5080 nM
O=C(c1nc2c(C(F)(F)F)cc(C3=CCCC3)cn2c1Cl)N1CC=C(c2nccs2)C1 [Compound 150, (3-Chloro-6-cyclopent-1-enyl-8-trifluoromethyl-imidazo[1,2-a]pyridin-2-yl)-(3-thiazol-2-yl-2,5-dihydro-pyrrol-1-yl)-methanone] | 6.86 nM
O=C(c1nc2c(C(F)(F)F)cc(C3=CCCC3)cn2c1Cl)N1CC=C(c2ncccc2F)CC1 [Compound 151, (3-Chloro-6-cyclopent-1-enyl-8-trifluoromethyl-imidazo[1,2-a]pyridin-2-yl)-(3-fluoro-3′,6′-dihydro-2′H-[2,4′]bipyridinyl-1′-yl)-methanone] | 734 nM
O=C(c1nc2c(C(F)(F)F)cc(-c3ccoc3)cn2c1Cl)N1CCC(NCC2CC2)CC1 [Compound 152, (3-Chloro-6-furan-3-yl-8-trifluoromethyl-imidazo[1,2-a]pyridin-2-yl)-[4-(cyclopropylmethyl-amino)-piperidin-1-yl]-methanone] | 19000 nM
